Data on 1 molecule can be found in publication PMC7777204, “Locking mixed-lineage kinase domain-like protein in its auto-inhibited state prevents necroptosis” (Proceedings of the National Academy of Sciences of the …, 2020).

As usually defined, the IC50 is the midpoint of a concentration-inhibition curve.

The subject of one experiment is Jurkat FADD−/− cells. As to the kind of experiment: Jurkat FADD−/− cytotox assay. The format is cell-based. The note with it: Homo sapiens, without huTNFα, Cell Titer Glo viability, read-out: Jurkat TOX IC50. The protocol: (§1) For the Jurkat FADD^−/− Necroptosis assay, compounds were serially diluted in 100% dimethyl sulfoxide (DMSO) (Sigma-Aldrich catalog no. 41641), and 250 nL was transferred to a sterile 384-well microtiter plate (PerkinElmer catalog no. 6007688) via Echo liquid handler (LABCYTE). Five thousand Jurkat FADD ^−/− cells (ATCC catalog no. CRL-2572) in 20 µL of modified Roswell Park Memorial Institute medium (Gibco catalog no. 10491), 10% fetal calf serum (Gibco catalog no. 100500), 1x Anti/Anti (Gibco catalog no. 15240-062), 1x L-Glutamax (Gibco catalog no. 35050-087), and 1% PenStrep (SIGMA catalog no. P4333) were seeded into each well of the prepared assay plate with compound. Cells and compounds were incubated for 30 min at 37 °C (humidified incubator with 5% CO2). After incubation, 5 µL of recombinant human TNFα (huTNFα) (Biotrend catalog no. cyt-223; 10 ng/mL final concentration [f.c.]) was added to the cells, followed by an incubation of 24 h at 37 °C. Following the incubation, the experimental plates were equilibrated to room temperature (30 min) before 25 µL of Cell Titer Glo Luminescent Cell Viability Assay System reagent (Promega catalog no. G7571) was added to the plate wells, incubated at room temperature for ∼10 min. After incubation, the samples were analyzed for luminescence by using an Envision reader (PerkinElmer).
MLKL antagonists were tested in cytotox assays by using Jurkat FADD^−/− and U937 cells according to the assay procedures described for the necroptosis assays, but without treatment with recombinant huTNFα and/or zVAD-fmk. High controls (100% CTL, no effect) were defined as cells treated with DMSO, and low controls (0% CTL) were defined as medium without cells (0% CTL, maximal effect).
(§2) All cellular assays were done for Cpd 1, Cpd 2, Cpd 3, Cpd 4, and Cpd 5 in duplicate and in quadruplet for NSA.
On the technique in general: ATP-based viability assays read luminescence as a measure of living cells.

A further experiment addresses T1, MLKL executioner domain (Homo sapiens, UniProt Q8NB16).
T1 construct: 80 µM MLKL N-terminal executioner domain (residues 1 to 154) was used; GST (thrombin cleavage site) (cleaved yes)
T1 sequence (Q8NB16 1-154): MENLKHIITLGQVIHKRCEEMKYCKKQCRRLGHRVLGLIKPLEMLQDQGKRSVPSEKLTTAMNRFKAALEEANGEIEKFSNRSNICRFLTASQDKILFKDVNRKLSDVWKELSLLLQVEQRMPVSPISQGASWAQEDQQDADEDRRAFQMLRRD
As to the kind of experiment: Real-time NMR of MLKL oligomerization. The format is biochemical. Particulars: after 48 h, 50 µM IP6, 12 mM NM, 500 µM Cpd 3, 300 µM MLKL, 298 K. How it is done: While MLKL was stable in the presence of either 500 µM IP6 or 12 mM NM (SI Appendix, Fig. S13), dispersed peaks were disappearing over time in the presence of the combination of the two. Monitoring this decay by real-time NMR, a series of ^1H,^15N-correlation spectra were recorded in the presence of 12 mM NM and 50 µM IP6. The latter concentration was reduced to slow down the process to enable real-time NMR detection, because at 500 µM IP6 concentration, 86% activation could be observed in the functional assay in the ^1H,^15N-correlation spectrum measured directly after sample preparation. The loss of peak intensity can be fitted with a biexponential decay with a fast time constant (Tf) of 0.35 ± 0.07 h and a slow time constant (Ts) of 10.0 ± 1.0 h. […] In addition to the known peaks reporting on the active state with α-helix 6 being detached (Ala141 N,H and Trp133 Nε1,Hε1), peaks in the random coil region of the spectrum appeared (Fig. 4A). […] Secondary chemical shifts confirmed that α-helix 6 becomes largely unfolded and has, according to ^15N-relaxation data, increased mobility (τC = 10 ns) and reduced rigidity (heteronuclear NOE around zero) in the activated state (SI Appendix, Fig. S10).
After 48 h, these signals decayed only to ∼70% intensity. Cross-peaks reporting on the unfolded, detached α-helix 6 likewise appeared more slowly in the presence of Cpd 3 (Fig. 4 B–D). […]

Another experiment deals with U937 cells. Briefly: U937 necroptosis assay. The format is cell-based. Particulars: Homo sapiens, U-937, huTNFα plus 10 µM zVAD-fmk, read-out: U937 NEC IC50. The protocol: as §1
Each assay plate contained wells with “high” and “low” controls. High controls (100% CTL) were defined as cells treated with DMSO, and low controls (0% CTL) were defined as cells treated with 10 ng/mL recombinant huTNFα. IC50 values were calculated based on the percentage of control values using a four-parameter-fitting model.
MLKL antagonists were also evaluated in a necroptosis assay with U937 cells ([26]) (ATCC catalog no. CRL-1593.2). The assay procedure with U937 cells was as described for the Jurakt FADD^−/− necroptosis assay with the following modifications: 8,000 cells were seeded per well, and, in addition to the recombinant huTNFα, cells were also incubated in the presence of 10 µM (f.c.) carbobenzoxy-valyl-alanyl-aspartyl-[O-methyl]-fluoromethylketone (zVAD-fmk) (Enzo Life Sciences catalog no. ALX-260-020). Low controls (0% CTL) were defined as cells treated with 100 ng/mL recombinant huTNFα plus 10 µM zVAD-fmk.
as §2

For the molecule `Cn1c(=O)c2c(nc(S(C)(=O)=O)n2C)n(CC#Cc2cccc(O)c2)c1=O` [Cpd 3], the IC50 is 13.6 µM with Jurkat FADD−/− cells and 0.271 µM with U937 cells. The “Remaining intensity of dispersed signals” value on MLKL executioner domain is roughly 70%.
